According to the supplement of paper PMC10733146:

How the values were obtained:
Test in all cases: viability relative to DMSO control (fraction); higher = less drug effect (more viable cells)
Details in all cases: 48 h
[1] = tested on: primary AML patient cells (S006)
Procedure, shortened: (§1)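 Viability was quantified by CellTiter-Glo luminescence and related to the median of 16 inner DMSO wells. Before that, primary mononuclear tumour cells, fresh or cryopreserved and Ficoll-isolated from blood or bone marrow or prepared from processed lymph node, were plated at 4 × 10^4 cells per well in 384-well plates containing pre-plated compounds at five concentrations, one well each. Plates were incubated in RPMI-1640 with penicillin/streptomycin, L-glutamine and human serum at 37 °C and 5% CO2 for 48 h.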

[2] = tested on: primary AML patient cells (S089)
Procedure, shortened: as §1

[3] = tested on: primary AML patient cells (S021)
Procedure, shortened: as §1

[4] = tested on: primary AML patient cells (S037)
Procedure, shortened: as §1

[5] = tested on: primary AML patient cells (S081)
Procedure, shortened: as §1

[6] = tested on: primary AML patient cells (S011)
Procedure, shortened: as §1

[7] = tested on: primary AML patient cells (S019)
Procedure, shortened: as §1

[8] = tested on: primary AML patient cells (S017)
Procedure, shortened: as §1

[9] = tested on: primary AML patient cells (S012)
Procedure, shortened: as §1

[10] = tested on: primary AML patient cells (S085)
Procedure, shortened: as §1

[11] = tested on: primary AML patient cells (S025)
Procedure, shortened: as §1

[12] = tested on: primary AML patient cells (S091)
Procedure, shortened: as §1

[13] = tested on: primary AML patient cells (S002)
Procedure, shortened: as §1

[14] = tested on: primary CLL patient cells (S043)
Procedure, shortened: as §1

With `COc1cccc2c1C(=O)c1c(O)c3c(c(O)c1C2=O)C[C@@](O)(C(C)=O)C[C@@H]3O[C@H]1C[C@H](N)[C@H](O)[C@H](C)O1` [Daunorubicin] the viability ([1]; 0.0016 µM) was 1.19, the viability ([1]; 0.008 µM) was 0.923 and the viability ([1]; 0.04 µM) was 0.248. It also gave a viability ([1]; 0.2 µM) of 0.075, a viability ([1]; 1 µM) of 0.0282 and a viability ([2]; 0.0016 µM) of 1.09. The viability ([2]; 0.008 µM) was 1.16, the viability ([2]; 0.04 µM) was 0.289 and the viability ([2]; 0.2 µM) was 0.132. The viability ([2]; 1 µM) was 0.0299, the viability ([3]; 0.0016 µM) was 1.09 and the viability ([3]; 0.008 µM) was 0.972. The viability ([3]; 0.04 µM) was 0.424, the viability ([3]; 0.2 µM) was 0.216 and the viability ([3]; 1 µM) was 0.145. For the same compound, the viability ([4]; 0.0016 µM) was 1.06, the viability ([4]; 0.008 µM) was 1.02 and the viability ([4]; 0.04 µM) was 0.709. The viability ([4]; 0.2 µM) was 0.565, the viability ([4]; 1 µM) was 0.368 and the viability ([5]; 0.0016 µM) was 1.07. It also gave a viability ([5]; 0.008 µM) of 1.16, a viability ([5]; 0.04 µM) of 1.15 and a viability ([5]; 0.2 µM) of 1.2. For the same compound, the viability ([5]; 1 µM) was 0.0266, the viability ([6]; 0.0016 µM) was 1.02 and the viability ([6]; 0.008 µM) was 1.07. It also gave a viability ([6]; 0.04 µM) of 0.409, a viability ([6]; 0.2 µM) of 0.0898 and a viability ([6]; 1 µM) of 0.0206. It also gave a viability ([7]; 0.0016 µM) of 1.38, a viability ([7]; 0.008 µM) of 1.33 and a viability ([7]; 0.04 µM) of 0.56. For the same compound, the viability ([7]; 0.2 µM) was 0.395, the viability ([7]; 1 µM) was 0.102 and the viability ([8]; 0.0016 µM) was 1.1. It also gave a viability ([8]; 0.008 µM) of 1.13, a viability ([8]; 0.04 µM) of 1.07 and a viability ([8]; 0.2 µM) of 0.745. The viability ([8]; 1 µM) was 0.0449, the viability ([9]; 0.0016 µM) was 1 and the viability ([9]; 0.008 µM) was 1.01. For the same compound, the viability ([9]; 0.04 µM) was 0.968, the viability ([9]; 0.2 µM) was 0.922 and the viability ([9]; 1 µM) was 0.083. It also gave a viability ([10]; 0.0016 µM) of 1.27, a viability ([10]; 0.008 µM) of 0.865 and a viability ([10]; 0.04 µM) of 0.312. It also gave a viability ([10]; 0.2 µM) of 0.164, a viability ([10]; 1 µM) of 0.0173 and a viability ([11]; 0.0016 µM) of 1.03. The viability ([11]; 0.008 µM) was 0.784, the viability ([11]; 0.04 µM) was 0.453 and the viability ([11]; 0.2 µM) was 0.431. For the same compound, the viability ([11]; 1 µM) was 0.0369, the viability ([12]; 0.0016 µM) was 0.998 and the viability ([12]; 0.008 µM) was 0.777. For the same compound, the viability ([12]; 0.04 µM) was 0.515, the viability ([12]; 0.2 µM) was 0.558 and the viability ([12]; 1 µM) was 0.0819. For the same compound, the viability ([13]; 0.0016 µM) was 1.04, the viability ([13]; 0.008 µM) was 0.983 and the viability ([13]; 0.04 µM) was 0.505. For the same compound, the viability ([13]; 0.2 µM) was 0.323, the viability ([13]; 1 µM) was 0.241 and the viability ([14]; 0.0016 µM) was 1.11. The viability ([14]; 0.008 µM) was 1.12, the viability ([14]; 0.04 µM) was 0.834 and the viability ([14]; 0.2 µM) was 0.33. It also gave a viability ([14]; 1 µM) of 0.0261.

In the case of `Nc1ncn([C@H]2C[C@H](O)[C@@H](CO)O2)c(=O)n1` [Decitabine (Dacogen)], the viability ([1]; 0.024 µM) is reported as 0.971, the viability ([1]; 0.12 µM) is reported as 0.877 and the viability ([1]; 0.6 µM) is reported as 1. It also gave a viability ([1]; 3 µM) of 0.747, a viability ([1]; 15 µM) of 0.716 and a viability ([2]; 0.024 µM) of 0.729. The viability ([2]; 0.12 µM) was 1.06, the viability ([2]; 0.6 µM) was 0.632 and the viability ([2]; 3 µM) was 1.22. It also gave a viability ([2]; 15 µM) of 0.642, a viability ([3]; 0.024 µM) of 1.17 and a viability ([3]; 0.12 µM) of 0.973. The viability ([3]; 0.6 µM) was 1.03, the viability ([3]; 3 µM) was 0.942 and the viability ([3]; 15 µM) was 0.818. For the same compound, the viability ([4]; 0.024 µM) was 1.01, the viability ([4]; 0.12 µM) was 0.925 and the viability ([4]; 0.6 µM) was 0.981. It also gave a viability ([4]; 3 µM) of 0.91, a viability ([4]; 15 µM) of 0.955 and a viability ([5]; 0.024 µM) of 1.05. For the same compound, the viability ([5]; 0.12 µM) was 0.898, the viability ([5]; 0.6 µM) was 1.05 and the viability ([5]; 3 µM) was 0.912. The viability ([5]; 15 µM) was 0.931, the viability ([6]; 0.024 µM) was 0.963 and the viability ([6]; 0.12 µM) was 0.887. For the same compound, the viability ([6]; 0.6 µM) was 1.1, the viability ([6]; 3 µM) was 0.887 and the viability ([6]; 15 µM) was 0.956. It also gave a viability ([7]; 0.024 µM) of 1.11, a viability ([7]; 0.12 µM) of 0.753 and a viability ([7]; 0.6 µM) of 1.04. The viability ([7]; 3 µM) was 0.684, the viability ([7]; 15 µM) was 0.918 and the viability ([8]; 0.024 µM) was 1.09. It also gave a viability ([8]; 0.12 µM) of 0.954, a viability ([8]; 0.6 µM) of 1.16 and a viability ([8]; 3 µM) of 0.918. It also gave a viability ([8]; 15 µM) of 1.08, a viability ([9]; 0.024 µM) of 1 and a viability ([9]; 0.12 µM) of 0.92. It also gave a viability ([9]; 0.6 µM) of 0.943, a viability ([9]; 3 µM) of 0.945 and a viability ([9]; 15 µM) of 0.929. It also gave a viability ([10]; 0.024 µM) of 0.939, a viability ([10]; 0.12 µM) of 0.904 and a viability ([10]; 0.6 µM) of 0.909. It also gave a viability ([10]; 3 µM) of 0.807, a viability ([10]; 15 µM) of 0.687 and a viability ([11]; 0.024 µM) of 0.968. The viability ([11]; 0.12 µM) was 0.953, the viability ([11]; 0.6 µM) was 0.912 and the viability ([11]; 3 µM) was 0.694. It also gave a viability ([11]; 15 µM) of 0.535, a viability ([12]; 0.024 µM) of 0.958 and a viability ([12]; 0.12 µM) of 1.09. For the same compound, the viability ([12]; 0.6 µM) was 0.83, the viability ([12]; 3 µM) was 0.913 and the viability ([12]; 15 µM) was 0.617. For the same compound, the viability ([13]; 0.024 µM) was 1.03, the viability ([13]; 0.12 µM) was 1.03 and the viability ([13]; 0.6 µM) was 0.952. For the same compound, the viability ([13]; 3 µM) was 0.892, the viability ([13]; 15 µM) was 0.903 and the viability ([14]; 0.024 µM) was 0.965. It also gave a viability ([14]; 0.12 µM) of 0.976, a viability ([14]; 0.6 µM) of 0.975 and a viability ([14]; 3 µM) of 0.959. The viability ([14]; 15 µM) was 0.899.
